#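 Method: 48-hour compound exposure of cells in 96-well plates, five concentrations, linear interpolation of endpoints. At the TGI there is no net growth.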
# Key:
# Assay in all cases: inhibition of tumour cell growth, NCI panel, 48 h
# SK-MEL-5 melanoma = tested on: SK-MEL-5 melanoma
# U251 CNS = tested on: U251 CNS
# OVCAR-8 ovarian = tested on: OVCAR-8 ovarian
# HCC-2998 colon = tested on: HCC-2998 colon
# OVCAR-4 ovarian = tested on: OVCAR-4 ovarian
# M19-MEL melanoma = tested on: M19-MEL melanoma
# SF-268 CNS = tested on: SF-268 CNS
# ACHN renal = tested on: ACHN renal
# A498 renal = tested on: A498 renal
# OVCAR-5 ovarian = tested on: OVCAR-5 ovarian
# LXFL 529 NSCLC = tested on: LXFL 529 NSCLC
# DLD-1 colon = tested on: DLD-1 colon
# SNB-19 CNS = tested on: SNB-19 CNS
# HOP-92 NSCLC = tested on: HOP-92 NSCLC
# NCI-H460 lung = tested on: NCI-H460 lung
# EKVX NSCLC = tested on: EKVX NSCLC
# RXF-631 renal = tested on: RXF-631 renal
# A549 NSCLC = tested on: A549 NSCLC
# SK-MEL-2 melanoma = tested on: SK-MEL-2 melanoma
# SK-OV-3 ovarian = tested on: SK-OV-3 ovarian
# CAKI-1 renal = tested on: CAKI-1 renal
# HOP-62 NSCLC = tested on: HOP-62 NSCLC
# M14 melanoma = tested on: M14 melanoma
# UACC-257 melanoma = tested on: UACC-257 melanoma
# HL-60(TB) leukemia = tested on: HL-60(TB) leukemia
# UACC-62 melanoma = tested on: UACC-62 melanoma
# TK-10 renal = tested on: TK-10 renal
# MALME-3M melanoma = tested on: MALME-3M melanoma
# SK-MEL-28 melanoma = tested on: SK-MEL-28 melanoma
# SF-295 CNS = tested on: SF-295 CNS
# NCI-H23 lung = tested on: NCI-H23 lung
# COLO 205 colon = tested on: COLO 205 colon
# SNB-75 CNS = tested on: SNB-75 CNS
# UO-31 renal = tested on: UO-31 renal
# MOLT-4 leukemia = tested on: MOLT-4 leukemia
# IGROV1 ovarian = tested on: IGROV1 ovarian
# RPMI-8226 leukemia = tested on: RPMI-8226 leukemia
# SR leukemia = tested on: SR leukemia
# SN12C renal = tested on: SN12C renal
# K-562 leukemia = tested on: K-562 leukemia
# SF-539 CNS = tested on: SF-539 CNS
# RXF 393 renal = tested on: RXF 393 renal
# HCT-116 colon = tested on: HCT-116 colon
# DMS 273 small cell lung = tested on: DMS 273 small cell lung
# SW-620 colon = tested on: SW-620 colon
# SNB-78 CNS = tested on: SNB-78 CNS
# DMS 114 small cell lung = tested on: DMS 114 small cell lung
# HCT-15 colon = tested on: HCT-15 colon
# OVCAR-3 ovarian = tested on: OVCAR-3 ovarian
# KM12 colon = tested on: KM12 colon
# XF 498 CNS = tested on: XF 498 CNS
# LOX IMVI melanoma = tested on: LOX IMVI melanoma
# KM20L2 colon = tested on: KM20L2 colon
# HOP-18 NSCLC = tested on: HOP-18 NSCLC
# 786-0 renal = tested on: 786-0 renal
# CCRF-CEM leukemia = tested on: CCRF-CEM leukemia
# NCI-H226 lung = tested on: NCI-H226 lung
# HT29 colon = tested on: HT29 colon
# NCI-H522 lung = tested on: NCI-H522 lung
smiles,measurement,setting,value
CC(=O)Nc1ccc(C2C(C(=O)Nc3ccccc3C)=C(C)NC(C)=C2C(=O)Nc2ccccc2C)cc1,TGI,SK-MEL-5 melanoma,> 100 µM
same,TGI,U251 CNS,> 100 µM
same,TGI,OVCAR-8 ovarian,> 100 µM
same,TGI,HCC-2998 colon,> 100 µM
same,TGI,OVCAR-4 ovarian,> 100 µM
same,TGI,M19-MEL melanoma,> 100 µM
same,TGI,SF-268 CNS,> 100 µM
same,TGI,ACHN renal,> 100 µM
same,TGI,A498 renal,> 100 µM
same,TGI,OVCAR-5 ovarian,> 100 µM
same,TGI,LXFL 529 NSCLC,> 100 µM
same,TGI,DLD-1 colon,> 100 µM
same,TGI,SNB-19 CNS,> 100 µM
same,TGI,HOP-92 NSCLC,> 100 µM
same,TGI,NCI-H460 lung,> 100 µM
same,TGI,EKVX NSCLC,> 100 µM
same,TGI,RXF-631 renal,> 100 µM
same,TGI,A549 NSCLC,> 100 µM
same,TGI,SK-MEL-2 melanoma,> 100 µM
same,TGI,SK-OV-3 ovarian,> 100 µM
same,TGI,CAKI-1 renal,> 100 µM
same,TGI,HOP-62 NSCLC,> 100 µM
same,TGI,M14 melanoma,> 100 µM
same,TGI,UACC-257 melanoma,> 100 µM
same,TGI,HL-60(TB) leukemia,> 100 µM
same,TGI,UACC-62 melanoma,> 100 µM
same,TGI,TK-10 renal,> 100 µM
same,TGI,MALME-3M melanoma,> 100 µM
same,TGI,SK-MEL-28 melanoma,> 100 µM
same,TGI,SF-295 CNS,> 100 µM
same,TGI,NCI-H23 lung,> 100 µM
same,TGI,COLO 205 colon,> 100 µM
same,TGI,SNB-75 CNS,> 100 µM
same,TGI,UO-31 renal,> 100 µM
same,TGI,MOLT-4 leukemia,> 26.2 µM
same,TGI,IGROV1 ovarian,> 100 µM
same,TGI,RPMI-8226 leukemia,> 100 µM
same,TGI,SR leukemia,> 100 µM
same,TGI,SN12C renal,> 100 µM
same,TGI,K-562 leukemia,> 100 µM
same,TGI,SF-539 CNS,> 100 µM
same,TGI,RXF 393 renal,> 100 µM
same,TGI,HCT-116 colon,> 100 µM
same,TGI,DMS 273 small cell lung,> 100 µM
same,TGI,SW-620 colon,> 100 µM
same,TGI,SNB-78 CNS,> 100 µM
same,TGI,DMS 114 small cell lung,> 100 µM
same,TGI,HCT-15 colon,> 100 µM
same,TGI,OVCAR-3 ovarian,> 100 µM
same,TGI,KM12 colon,> 31.6 µM
same,TGI,XF 498 CNS,> 100 µM
same,TGI,LOX IMVI melanoma,> 100 µM
same,TGI,KM20L2 colon,> 100 µM
same,TGI,HOP-18 NSCLC,> 100 µM
same,TGI,786-0 renal,> 100 µM
same,TGI,CCRF-CEM leukemia,> 100 µM
same,TGI,NCI-H226 lung,> 100 µM
same,TGI,HT29 colon,> 100 µM
same,TGI,NCI-H522 lung,> 100 µM
COC(=O)c1cc2cc(OC)c(OC)cc2cc(C(=O)OC)c1=O,TGI,SK-MEL-5 melanoma,> 100 µM
same,TGI,U251 CNS,> 100 µM
same,TGI,OVCAR-8 ovarian,> 100 µM
same,TGI,HCC-2998 colon,> 100 µM
same,TGI,OVCAR-4 ovarian,> 100 µM
same,TGI,M19-MEL melanoma,> 100 µM
same,TGI,SF-268 CNS,> 100 µM
same,TGI,ACHN renal,> 100 µM
same,TGI,A498 renal,> 100 µM
same,TGI,OVCAR-5 ovarian,> 100 µM
same,TGI,LXFL 529 NSCLC,> 100 µM
same,TGI,DLD-1 colon,> 100 µM
same,TGI,SNB-19 CNS,> 100 µM
same,TGI,HOP-92 NSCLC,> 100 µM
same,TGI,NCI-H460 lung,> 100 µM
same,TGI,EKVX NSCLC,> 100 µM
same,TGI,RXF-631 renal,> 100 µM
same,TGI,A549 NSCLC,> 100 µM
same,TGI,SK-MEL-2 melanoma,> 100 µM
same,TGI,SK-OV-3 ovarian,> 100 µM
same,TGI,CAKI-1 renal,> 100 µM
same,TGI,HOP-62 NSCLC,> 100 µM
same,TGI,M14 melanoma,> 100 µM
same,TGI,UACC-257 melanoma,> 100 µM
same,TGI,HL-60(TB) leukemia,> 100 µM
same,TGI,UACC-62 melanoma,> 100 µM
same,TGI,TK-10 renal,> 100 µM
same,TGI,MALME-3M melanoma,> 100 µM
same,TGI,SF-295 CNS,> 100 µM
same,TGI,NCI-H23 lung,> 100 µM
same,TGI,COLO 205 colon,> 100 µM
same,TGI,SNB-75 CNS,> 100 µM
same,TGI,UO-31 renal,> 100 µM
same,TGI,MOLT-4 leukemia,> 100 µM
same,TGI,IGROV1 ovarian,> 100 µM
same,TGI,RPMI-8226 leukemia,> 100 µM
same,TGI,SN12C renal,> 100 µM
same,TGI,K-562 leukemia,> 100 µM
same,TGI,SF-539 CNS,> 100 µM
same,TGI,RXF 393 renal,> 100 µM
same,TGI,HCT-116 colon,> 100 µM
same,TGI,DMS 273 small cell lung,> 100 µM
same,TGI,SW-620 colon,> 100 µM
same,TGI,SNB-78 CNS,> 100 µM
same,TGI,DMS 114 small cell lung,> 100 µM
same,TGI,HCT-15 colon,> 100 µM
same,TGI,OVCAR-3 ovarian,> 100 µM
same,TGI,KM12 colon,> 100 µM
same,TGI,XF 498 CNS,> 100 µM
same,TGI,LOX IMVI melanoma,> 100 µM
same,TGI,KM20L2 colon,> 100 µM
same,TGI,HOP-18 NSCLC,> 100 µM
same,TGI,786-0 renal,> 100 µM
same,TGI,CCRF-CEM leukemia,> 100 µM
same,TGI,HT29 colon,> 100 µM
same,TGI,NCI-H522 lung,> 100 µM
